Test results from patent US5457092A, “Methods of promoting bone growth in mammals comprising administration of modified parathyroid hormone” (Gesellschaft fur Biotechnologische Forschung mbH (GBF), priority 1987, dated 1995).
Where two headings read alike, the source gives them in different places.

Columns and labels:
[1] = test system: ROS 17/2.8 cells; test: Inhibition of bPTH(1-34)-stimulated cAMP synthesis of intact ROS 17/2.8 cells; type: cell-based, rat; details: 30 nM hPTH(28-48) added to 100 nM bPTH(1-34); 1 mM IBMX; 10 min
Description: FIG. 9 is a graphical representation showing the cAMP yields [nitrogenic effect of bPTH (1-34].
100 nM bPTH(1-34) were used to stimulate cAMP synthesis of intact ROS 17/2.8 cells (cell density 1.3×10^6 cells/cm^2) in the presence of 1 mM IBMX for 10 min. cAMP yields were determined by radio assay. Based on the conditions mentioned, the cAMP basal value of non-stimulated cells corresponds to 8 pmol/well. This effect of bPTH(1-34) can be inhibited by an additional doses of 30 nM hPTH(28-48) up to about 50%; cf. FIG. 9.

[2] = test system: chondrocytes isolated from the sterna of 16-day-old chicken embryos; test: Determination of cell number of chondrocyte cultures; type: cell-based; details: induced for 24 hours; non-induced 41,000 cells/ml
Description: FIG. 7 is a comparative graph showing cell number after incubation of the non-induced cultures compared to cultures induced with hPTH (28-48) for 24 hours.
FIG. 1: In order to determine the incorporation of ^3 H-methylthymidine into total DNA the cells were cultivated on microtiter plates in M199 medium at a concentration of foetal calf serum (FCS) of less than 0.5% (by volume). The cell density of the chondrocytes that reacted to the addition of PTH with an increase in the incorporation of ^3 H-methylthymidine into the total DNA was from 1250 to 6000 cells/microtitre well (diameter 6 mm) at the time of plating-out. […] The incorporation of ^3 H-methylthymidine into the total DNA was determined as follows. After removing the radioactive medium, the adherent growing chondrocytes were washed with PBS and lysed in the microtitre wells. The total DNA was then precipitated under acid conditions at low temperature and transferred onto filter papers using a semi-automatic harvesting device. The rate of incorporation into total DNA could then be determined; cf. FIG. 1. […] The concentration for semi-maximum stimulation was from 9 to 15 nM for bPTH(1-84) and from 50 to 75 nM for the PTH fragments bPTH(1-34) and bPTH(3-34). In contrast, the PTH fragment hPTH(28-48), which, according to Adv. Protein Chemistry, 35 (1982) 323 ff.

[3] = test system: renal adenylate cyclase; details: Adv. Protein Chemistry 35 (1982) 323 ff. (Potts et al.), cited from earlier work
[4] = test system: renal PTH receptor; details: Adv. Protein Chemistry 35 (1982) 323 ff. (Potts et al.); cited from earlier work
[5] = test system: chondrocytes from sterna of 16-day-old embryonic chicks; test: Stimulation of DNA synthesis in chondrocytes by PTH fragments (Table 1); type: cell-based, chick; details: for [^3 H]thymidine incorporation: 4 h, control 324 ± 18; for E/C: stimulated / non-induced control cells
Description: Chondrocytes were isolated from sterna of 16-day-old embryonic chicks according to J. Biol. Chem., 261 (1986) 7997-8001 (10; Yasui et al.) with some modifications. Collagenase was dissolved in Hanks' balanced salt solution (0.4 mM Na2 HPO4, 140 mN NaCl, 5.3 mM KCl, 0.4 mM MgSO4, 1.3 mM CaCl2, 0.4 mM KH2 PO4, 0.5 mM MglC2, 5 mM glucose, 0.05% gentamicin) at a concentration of 286 units/ml. Sterna were treated repeatedly for 30 min with collagenase solution at 37° C. Cells first released by this procedure were discarded because of their very poor responsiveness towards PTH. The collagenase treatment was subsequently repeated leading to a highly homogenous cell population of chondrocytes. The cells obtained by a second collagenase treatment were collected by centrifugation (1000 rpm, 10 min), washed twice with medium (Dulbecco's modified Eagle's medium, GIBCO, supplemented with NaHCO3 (45 mM), glutamine (2 mM), penicillin G/streptomycin (65 mg/1 and 100 mg/l, respectively), Hepes (10 mM, pH 7.2), and FCS (10% v/v) and counted.
The DNA synthesis rate was assayed in monolayer culture by the incorporation of ]^3 H]thymidine into perchloric acid-precipitable material. […] After 17 h, the medium was replaced by 200 μl of serum-free medium. After 4 days, chondrocytes were incubated for 4 h with the appropriate effector and 1μ Ci of [^3 H]thymidine. Subsequently, medium was removed and the cells were washed twice with 200 μl of phosphate-buffered saline (PBS: 137 mM NaCl, 2.7 mN KCl, 1.5 mM KH2 PO4, 0.8 mN Na2 HPO4, pH 7.0). Then cells were lysed by 100 μl of 2% (v/v) Nonidet P- 40 and 2% (w/v) sodium dodecyl sulfate treatment and the perchloric acid-insoluble material was precipitated by adding an equal volume of ice-cold 2% (w/v) perchloric acid in the presence of 1% herring sperm DNA as carrier. After storage for 10 min at -20° C., the precipitated material of each well was transferred to glass fiber filters with a Scatron--As semiautomatic cell harvester. Filters were dried at 80° C. for 20 min, transferred into scintillation vials, and 2 ml of scintillation mixture (scintillator 299; United Technology Pachard) were added. Radioactivity of the samples was determined with a β counter (Minimax; United Technology Pachard). Each test consisted of 5 up to 10 identically treated wells and was repeated at least twice with freshly prepared chondrocytes.
The incorporation of [^3 H]thymidine by non-induced control cells and by stimulated cells is shown by C and E, respectively. The results shown mean ±S.E. for n parallel cell cultures.

Substance | inhibition of the cAMP synthesis stimulated by bPTH(1-34) [1] | total cell number [2] | stimulation of renal adenylate cyclase [3] | stimulation of renal adenylate cyclase ([3]; listed as hPTh(28-48)) | binding to the renal PTH receptor [4] | [^3 H]thymidine incorporation ([5]; 6.1 × 10^-4 mol/l) [cpm] | E/C ([5]; 6.1 × 10^-4 mol/l) | [^3 H]thymidine incorporation ([5]; 6.1 × 10^-5 mol/l) [cpm] | E/C ([5]; 6.1 × 10^-5 mol/l) | [^3 H]thymidine incorporation ([5]; 6.1 × 10^-6 mol/l) [cpm] | E/C ([5]; 6.1 × 10^-6 mol/l) | [^3 H]thymidine incorporation ([5]; 6.1 × 10^-7 mol/l) [cpm] | E/C ([5]; 6.1 × 10^-7 mol/l) | [^3 H]thymidine incorporation ([5]; 6.1 × 10^-8 mol/l) [cpm] | E/C ([5]; 6.1 × 10^-8 mol/l)
hPTH(28-48): mid-regional PTH fragment 28-48, human source (LQDVHNFVALGAPLAPRDAGS; Parathyroid hormone; UniProt P01270 59-79, looked up, fragment) | about 50% | 63,000 cells/ml | does not stimulate renal adenylate cyclase | will not stimulate renal adenylate cyclase | does not bind to the renal PTH receptor |  |  |  |  |  |  |  |  |  | 
hPTH(25-39): PTH fragment 25-39, human source (RKKLQDVHNFVALGA; Parathyroid hormone; UniProt P01270 56-70, looked up, fragment) |  |  |  |  |  | 542 ± 71 | 1.67 | 655 ± 147 | 2.02 | 517 ± 65 | 1.60 | 418 ± 41 | 1.29 | 452 ± 56 | 1.40
